Source: patent publication US7399744B2, “Methods for affecting body composition” (Amylin Pharmaceuticals, Inc., priority 2004, dated 2008)
Marks after values point to notes of the source that are not given here. Ends that are not written are not given here.

Legend:
[1] = Amylin or sibutramine by 28-day osmotic pump in high fat-fed rats (Example 1); assay type: in vivo, rat; details: for Body Weight / Caloric Intake: amylin 300 μg/kg/day or sibutramine 3 mg/kg/day, s.c. 28-day osmotic pump, high fat-fed rats, vs high fat-fed controls
Experimental: (§1) Low fat-fed rats (11% kcal from fat, D12329, Research Diets) were also implanted with pumps delivering vehicle. Food intake and body weight measurements were obtained weekly.
Rats were sacrificed by cardiac puncture under anesthesia. Triglyceride levels were measured on a COBAS Mira plasma analyzer (Roche), and leptin and insulin were assayed according to Linco Research rat RIA kits. Body composition was measured by chemical analysis (Covance Laboratories, Madison, Wis.).
All data are represented as mean±SEM. Analysis of variance was used to test for group differences.
The rats were fattened for 10 weeks prior to drug treatment. The high fat-fed rats were designated as obesity-prone (top 50% of weight gainers) or obesity-resistant (bottom 50%) based on the amount of weight gained through week 7.
In this study, an obesity-prone/obesity-resistant difference in drug interaction was found for protein weight in amylin-treated rats, and thus body composition parameters were measured separately in obesity-prone and obesity-resistant animals in each drug group (FIGS. 2A and 2B).

[2] = Three doses of amylin by osmotic pump in high fat-fed rats (Example 2); assay type: in vivo, rat; details: for Body Weight / Caloric Intake: high fat-fed rats, vs high fat-fed controls
Text: as §1

[3] = Chronic amylin infusion vs pair-feeding in lean HSD rats (Example 3); assay type: in vivo, rat
Experimental: Lean, male Harlan SPRAGLE DAWLEY® (HSD) (Harlan 7012) rats were maintained on “standard chow” (˜5% calories from fat).
Food intake and body weight were recorded daily (FIGS. 5, 6A, 6B, 7, 8A, and 8B).
On the final day of the experiment, rats were deeply anaesthetized and sacrificed by cardiac puncture. Plasma triglycerides, glucose, and cholesterol were measured on a COBAS Mira plasma Analyzer (Roche). Plasma leptin and insulin were measured using Linco Research kits. (See, FIGS. 9A-9F and 10A-10E.) Body composition was measured by chemical analysis (Covance Laboratories, Madison, Wis.). Fat pad weights of the epididymal, retroperitoneal, subcutaneous, and perirenal fat pads (all unilateral; analysis only done in DIO animals) were carefully dissected and weighed (FIGS. 12A-12D). In analyzing the tissue biochemistry, […] were powdered under liquid N2 and extracted in chloroform:methanol. 0.6% NaCl solution was then added and the tubes were vortexed, centrifuged, and the organic phase was transferred to glass scintillation vials and dried under a stream of N2. Dried lipids were resuspended and triglycerides were quantified by enzymatic assay (Pointe Scientific, Inc.). Tissue glycogen was measured by the amyloglucosidase method. (See FIGS. 11A-11D.)
All data are represented as mean±SEM. Analysis of variance (ANOVA) and Bonferroni post-hoc tests were used to test for group differences (SYSTAT® for Windows). A P-value <0.05 was considered significant. Graphs were generated using PRISM® 4 for Windows (Graphpad Software).

[4] = Chronic amylin infusion vs pair-feeding in DIO Levin rats (Example 3); assay type: in vivo, rat; design: reduction in body weight relative to vehicle controls / Weight (g) / Ash (%): dose or concentration left out as unconfirmed
[5] = Amylin with prior or concurrent food restriction in retired female breeder rats (Example 4); assay type: in vivo, rat; details: for % Change in fat / % Change in protein / Estimated Mean Weight change from treatment: amylin 100 μg/kg/day, retired female breeder rats, high fat diet
Text: Retired female breeder rats were maintained on a high fat diet (40% fat) for 8 weeks. Prior to drug treatment, rats were either ad-lib fed or food restricted to 95% of their starting body weight.
Changes in body weight and body composition are summarized in the table below and depicted in FIGS. 13A-13P.

[6] = Amylin versus pramlintide in DIO Levin rats (Example 5); assay type: in vivo, rat; details: 76 nmol/kg/day by osmotic mini-pump for 24 days
Experimental: 48 DIO Levin rats (an in-bred model of diet induced obesity) were used in this study. […] Food intake and body weight was measured daily. […] The pair-fed groups were only allowed to consume the daily intakes of their respective drug-treated groups. For body composition, rats were scanned in a rodent NMR before treatment and after sacrifice (at the end of the study), allowing for the ability to calculate changes in carcass fat and protein (e.g., lean tissue).

[7] = system: insulin-stimulated glycogen synthesis in soleus muscle; test: Soleus muscle assay; assay type: cell-based; details: rat soleus muscle, inhibition of glucose incorporation into glycogen
Experimental: Concentrations of peptide dissolved in carrier-free buffers are determined by quantitative amino acid analysis, as described therein. The ability of compounds to act as agonists in this assay is determined by measuring EC50 values. […] Similar results were obtained with other agonist compounds listed above.

[8] = amylin 300 mg/kg/day, s.c. 28-day osmotic pump, body composition by chemical analysis
[9] = DIO rats, amylin 300 mg/kg/day, s.c. 28-day osmotic pump, body composition by chemical analysis
[10] = food access prior Ad-lib, during Ad-lib
[11] = food access prior Ad-lib, during Restricted
[12] = food access prior Restricted, during Ad-lib
[13] = food access prior Restricted, during Restricted

CC(C)CC(N(C)C)C1(c2ccc(Cl)cc2)CCC1 (stereo not drawn) [SIBUTRAMINE, sibutramine, reference compound]
Body Weight ([1]; Week 1): 6%*
Caloric Intake ([1]; Week 1): 45%*
Body Weight ([1]; Week 2): 6%*
Caloric Intake ([1]; Week 2): 8%*
Body Weight ([1]; Week 3): 6%*
Caloric Intake ([1]; Week 3): −1%
Body Weight ([1]; Week 4): 3%
Caloric Intake ([1]; Week 4): −3%

amylin: Amylin synthesized by Amylin Pharmaceuticals, Inc. by solid-phase chemistry; species not stated (KCNTATCATQRLANFLVHSSNNFGAILSSTNVGSNTY; not fully specified (C-terminus, bridges); cysteine pairing not given here; UniProt P10997 34-70, looked up)
Body Weight ([1]; Week 1): 6%*
Caloric Intake ([1]; Week 1): 45%*
Body Weight ([1]; Week 2): 7%*
Caloric Intake ([1]; Week 2): 14%*
Body Weight ([1]; Week 3): 8%*
Caloric Intake ([1]; Week 3): 10%*
Body Weight ([1]; Week 4): 8%*
Caloric Intake ([1]; Week 4): 10%*
tolerance/resistance ([1]; administered by osmotic pump): did not induce tolerance/resistance
protein compared to the control group (vehicle only) ([1]; obesity-prone rats): increase
body weight gain ([2]; 30 μg/kg/day): reduction
Body Weight ([2]; 30 μg/kg/day amylin, Week 1): 5%*
Caloric Intake ([2]; 30 μg/kg/day amylin, Week 1): 32%*
Body Weight ([2]; 30 μg/kg/day amylin, Week 2): 7%*
Caloric Intake ([2]; 30 μg/kg/day amylin, Week 2): 17%*
Body Weight ([2]; 30 μg/kg/day amylin, Week 3): 7%*
Caloric Intake ([2]; 30 μg/kg/day amylin, Week 3): 10%
Body Weight ([2]; 30 μg/kg/day amylin, Week 4): 7%*
Caloric Intake ([2]; 30 μg/kg/day amylin, Week 4): 8%
Body Weight ([2]; 100 μg/kg/day amylin, Week 1): 10%*
Caloric Intake ([2]; 100 μg/kg/day amylin, Week 1): 45%*
Body Weight ([2]; 100 μg/kg/day amylin, Week 2): 10%*
Caloric Intake ([2]; 100 μg/kg/day amylin, Week 2): 19%*
Body Weight ([2]; 100 μg/kg/day amylin, Week 3): 9%*
Caloric Intake ([2]; 100 μg/kg/day amylin, Week 3): 4%
Body Weight ([2]; 100 μg/kg/day amylin, Week 4): 8%*
Caloric Intake ([2]; 100 μg/kg/day amylin, Week 4): 9%
Body Weight ([2]; 300 μg/kg/day amylin, Week 1): 7%*
Caloric Intake ([2]; 300 μg/kg/day amylin, Week 1): 41%*
Body Weight ([2]; 300 μg/kg/day amylin, Week 2): 8%*
Caloric Intake ([2]; 300 μg/kg/day amylin, Week 2): 15%*
Body Weight ([2]; 300 μg/kg/day amylin, Week 3): 10%*
Caloric Intake ([2]; 300 μg/kg/day amylin, Week 3): 19%*
Body Weight ([2]; 300 μg/kg/day amylin, Week 4): 12%*
Caloric Intake ([2]; 300 μg/kg/day amylin, Week 4): 19%*
effects on food intake and body weight across doses ([2]; 30, 100 and 300 μg/kg/day): dose-dependent
percent body fat relative to pair-fed [3]: lower
percent protein [3]: remained relatively constant
weight gain compared to vehicle rats [3]: significant reduction
reduction in body weight relative to vehicle controls ([3]; amylin 300 μg/kg/day, osmotic pump): 12%
Fat (%) ([3]; amylin 300 μg/kg/day, s.c. 28-day osmotic pump, body composition by chemical analysis): 7.2 ± 1.5 %
Weight (g) ([3]; amylin 300 μg/kg/day, s.c. 28-day osmotic pump, end of study): 392.25* g
Moisture (%) [3, 8]: 67.57 ± 0.7 %
Protein (%) [3, 8]: 20.67 ± 0.74%
percent body fat ([4]; DIO rats): significant decrease
percent protein ([4]; DIO rats): significant preservation or gain
weight gain compared to vehicle rats ([4]; DIO rats): significant reduction
Fat (%) [4, 9]: 24.3 ± 6.5 %
Moisture (%) [4, 9]: 56.68 ± 4.4 %
Protein (%) [4, 9]: 18.09 ± 1.68 %
reduction in body weight relative to vehicle controls ([4]; DIO rats, osmotic pump): 12%
Ash (%) ([4]; DIO rats, s.c. 28-day osmotic pump, body composition by chemical analysis): 1.65 ± 0.34%
Weight (g) ([4]; DIO rats, s.c. 28-day osmotic pump, end of study): 548.94* g
muscle glycogen content ([4]; tissue biochemistry, amyloglucosidase method): significantly reduced
food intake versus vehicle treated counterparts ([5]; FIGS. 13E-13H): ate less
Body Weight ([5]; all treatment conditions): significantly reduced
percent protein ([5]; except in ad-lib fed then food restricted group): increases
percent body fat ([5]; except in chronically restricted animals): significant decreases
% Change in fat [5, 10]: −10.1 ± 0.5%
% Change in protein [5, 10]: 0.8 ± 0.1%
Estimated Mean Weight change from treatment [5, 10]: -21.8 ± 1.4 g
% Change in fat [5, 11]: −9.9 ± 0.9%
% Change in protein [5, 11]: 0.7 ± 0.1%
Estimated Mean Weight change from treatment [5, 11]: -23.1 ± 2.3 g
% Change in fat [5, 12]: −11.5 ± 0.6%
% Change in protein [5, 12]: 1.1 ± 0.1%
Estimated Mean Weight change from treatment [5, 12]: -18.2 ± 2.5 g
% Change in fat [5, 13]: −11.1 ± 1.0%
% Change in protein [5, 13]: 1.0 ± 0.1%
Estimated Mean Weight change from treatment [5, 13]: -17.1 ± 2.0 g
slowing body weight gain [6]: significant effect
effects on body composition ([6]; rodent NMR): favorable effects

^2,37h-Amylin
EC50 [7]: 1.63 nM
